Values quoted from earlier work as cited in patent US20150045434A1, “METHIONINE COMPOUND INTENDED FOR ANIMAL FEED” (ROQUETTE FRERES, priority 2011, published 2015).

Assays:
[1] = at 35° C.

pKa1 (pKa of the acid function of methionine) (acid function): 2.2 | pKa2 (pKa of the amine function of methionine) (amine function): 9.3 | solubility of methionine [1]: about 70 g/l
SMILES: CSCC[C@H](N)C(=O)O [methionine]
